# From PubChem BioAssay AID2060612 (Molecular Pharmacology Branch, DTP, NCI, 2025)
# Test system: 565232-114-T-J1-PDC complex spheroid viability
# Assay: Anticancer human tumor 565232-114-T-J1-PDC patient-derived bladder carcinoma cell line growth inhibition [CLK]
# Conditions: for IC50: curve of first compound; for viability, T/C: stronger effect = lower value
# In short: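 Multi-cell-type spheroids combined patient-derived tumor cells with HUVEC endothelial cells and human mesenchymal stem cells. Paired agents were dosed in half-log steps down from about clinical Cmax, or from 10 microM where Cmax was unknown.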
# [1] = second compound 0.0316 µM, first compound 0.00316 µM
# [2] = second compound 0.0316 µM, first compound 0.01 µM
# [3] = second compound 0.0316 µM, first compound 0.0316 µM
# [4] = second compound 0.0316 µM, first compound 0.1 µM
# [5] = second compound 0.0316 µM, first compound 0.316 µM
# [6] = second compound 0.0316 µM, first compound 1 µM
# [7] = second compound 0.1 µM, first compound 0.00316 µM
# [8] = second compound 0.1 µM, first compound 0.01 µM
# [9] = second compound 0.1 µM, first compound 0.0316 µM
# [10] = second compound 0.1 µM, first compound 0.1 µM
# [11] = second compound 0.1 µM, first compound 0.316 µM
# [12] = second compound 0.1 µM, first compound 1 µM
# [13] = second compound 0.316 µM, first compound 0.00316 µM
# [14] = second compound 0.316 µM, first compound 0.01 µM
# [15] = second compound 0.316 µM, first compound 0.0316 µM
# [16] = second compound 0.316 µM, first compound 0.1 µM
# [17] = second compound 0.316 µM, first compound 0.316 µM
# [18] = second compound 0.316 µM, first compound 1 µM
# [19] = second compound 1 µM, first compound 0.00316 µM
# [20] = second compound 1 µM, first compound 0.01 µM
# [21] = second compound 1 µM, first compound 0.0316 µM
# [22] = second compound 1 µM, first compound 0.1 µM
# [23] = second compound 1 µM, first compound 0.316 µM
# [24] = second compound 1 µM, first compound 1 µM
# [25] = second compound 3.16 µM, first compound 0.00316 µM
# [26] = second compound 3.16 µM, first compound 0.01 µM
# [27] = second compound 3.16 µM, first compound 0.0316 µM
# [28] = second compound 3.16 µM, first compound 0.1 µM
# [29] = second compound 3.16 µM, first compound 0.316 µM
# [30] = second compound 3.16 µM, first compound 1 µM
# [31] = second compound 10 µM, first compound 0.00316 µM
# [32] = second compound 10 µM, first compound 0.01 µM
# [33] = second compound 10 µM, first compound 0.0316 µM
# [34] = second compound 10 µM, first compound 0.1 µM
# [35] = second compound 10 µM, first compound 0.316 µM
# [36] = second compound 10 µM, first compound 1 µM
# 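Also: spheroids exposed to compounds for 7 days before readout.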
# 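For viability, T/C in this document: 100% = DMSO vehicle wells with luminescence normalized to vehicle control.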
compound,measurement,setting,value
CCN1CCN(Cc2ccc(Nc3ncc(F)c(-c4cc(F)c5nc(C)n(C(C)C)c5c4)n3)nc2)CC1 + CNC(=O)c1ccc(Nc2nc(OC3CCCC3)c3c(-c4ccc5nc(C)oc5c4)c[nH]c3n2)c(OC)c1,IC50,second compound 0.0316 µM,> 1000 nM
same,IC50,second compound 0.1 µM,> 1000 nM
same,IC50,second compound 0.316 µM,< 3.16 nM
same,IC50,second compound 1 µM,< 3.16 nM
same,IC50,second compound 3.16 µM,< 3.16 nM
same,IC50,second compound 10 µM,< 3.16 nM
same,"viability, T/C",[1],84.4%
same,"viability, T/C",[2],81.1%
same,"viability, T/C",[3],84.7%
same,"viability, T/C",[4],82.6%
same,"viability, T/C",[5],119%
same,"viability, T/C",[6],129%
same,"viability, T/C",[7],53.9%
same,"viability, T/C",[8],56.5%
same,"viability, T/C",[9],48.7%
same,"viability, T/C",[10],64%
same,"viability, T/C",[11],58.3%
same,"viability, T/C",[12],66.7%
same,"viability, T/C",[13],32.8%
same,"viability, T/C",[14],40.6%
same,"viability, T/C",[15],32.6%
same,"viability, T/C",[16],38.2%
same,"viability, T/C",[17],42.3%
same,"viability, T/C",[18],46.4%
same,"viability, T/C",[19],23.9%
same,"viability, T/C",[20],26.5%
same,"viability, T/C",[21],24.7%
same,"viability, T/C",[22],34.2%
same,"viability, T/C",[23],35.8%
same,"viability, T/C",[24],39.2%
same,"viability, T/C",[25],18.1%
same,"viability, T/C",[26],19%
same,"viability, T/C",[27],25%
same,"viability, T/C",[28],22.9%
same,"viability, T/C",[29],27.2%
same,"viability, T/C",[30],37%
same,"viability, T/C",[31],19.9%
same,"viability, T/C",[32],18.4%
same,"viability, T/C",[33],21.7%
same,"viability, T/C",[34],22.5%
same,"viability, T/C",[35],31.2%
same,"viability, T/C",[36],27.1%
COc1c(OCCCN2CCOCC2)ccc2c3n(c(=NC(=O)c4cnc(N)nc4)nc12)CCN3 + CNC(=O)c1ccc(Nc2nc(OC3CCCC3)c3c(-c4ccc5nc(C)oc5c4)c[nH]c3n2)c(OC)c1,IC50,second compound 0.0316 µM,> 1000 nM
same,IC50,second compound 0.1 µM,< 3.16 nM
same,IC50,second compound 0.316 µM,< 3.16 nM
same,IC50,second compound 1 µM,< 3.16 nM
same,IC50,second compound 3.16 µM,< 3.16 nM
same,IC50,second compound 10 µM,< 3.16 nM
same,"viability, T/C",[1],106%
same,"viability, T/C",[2],81.5%
same,"viability, T/C",[3],84.9%
same,"viability, T/C",[4],94.5%
same,"viability, T/C",[5],118%
same,"viability, T/C",[6],68.7%
same,"viability, T/C",[7],39.5%
same,"viability, T/C",[8],38.5%
same,"viability, T/C",[9],29.8%
same,"viability, T/C",[10],31.7%
same,"viability, T/C",[11],22.6%
same,"viability, T/C",[12],20.8%
same,"viability, T/C",[13],26.9%
same,"viability, T/C",[14],24.1%
same,"viability, T/C",[15],22.4%
same,"viability, T/C",[16],18.9%
same,"viability, T/C",[17],15.8%
same,"viability, T/C",[18],9.27%
same,"viability, T/C",[19],15.4%
same,"viability, T/C",[20],16.9%
same,"viability, T/C",[21],14.5%
same,"viability, T/C",[22],8.97%
same,"viability, T/C",[23],5.69%
same,"viability, T/C",[24],3.61%
same,"viability, T/C",[25],15.6%
same,"viability, T/C",[26],9.18%
same,"viability, T/C",[27],8.92%
same,"viability, T/C",[28],4.99%
same,"viability, T/C",[29],5.15%
same,"viability, T/C",[30],1.71%
same,"viability, T/C",[31],12.3%
same,"viability, T/C",[32],10.3%
same,"viability, T/C",[33],5.74%
same,"viability, T/C",[34],5.45%
same,"viability, T/C",[35],3.3%
same,"viability, T/C",[36],1.73%
